Measurements: patent US20260000710A1, “Novel Treatments for Cardiovascular Related Disease” (priority 2022, published 2026)

System: AIM+ and AIM− CD4+ T cells from peptide-expanded PBMCs
Test: TCRβ CDR3 sequencing (immunoSEQ) of sorted AIM+ and AIM− CD4+ T cells;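 further: genomic DNA from sorted cells as template, amplification bias-controlled two-step multiplex PCR, APOB6 pool at 10 µg/ml per peptide, CD40 blocking antibody added before restimulation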
Type: cell-based, human
Conditions: for Log10 Odds Ratio: AIM+ vs AIM−; for No. of clone-specific productive templates, AIM+ CD4+ T (Total 34927) / No. of clone-specific productive templates, AIM− CD4+ T (Total 45364) / No. of clone-specific productive templates, AIM+ CD4+ T (Total 31354) / No. of clone-specific productive templates, AIM− CD4+ T (Total 48987) / No. of clone-specific productive templates, AIM+ CD4+ T (Total 16700) / No. of clone-specific productive templates, AIM− CD4+ T (Total 21770) / No. of clone-specific productive templates, AIM+ CD4+ T (Total 25796) / No. of clone-specific productive templates, AIM− CD4+ T (Total 25928) / No. of clone-specific productive templates, AIM+ CD4+ T (Total 18591) / No. of clone-specific productive templates, AIM− CD4+ T (Total 7206) / No. of clone-specific productive templates, AIM+ CD4+ T (Total 21697) / No. of clone-specific productive templates, AIM− CD4+ T (Total 49956): PBMCs expanded 14 days and restimulated 24 h with APOB6
Protocol: To examine the clonotypic identities of autoreactive CD4^+ T cells, the hypervariable TCRβ DR3 region was sequenced using a DNA-based sequencing technique^42 (Adaptive Biotechnologies), which have been used to profile clonal populations of other self-antigen specific T cells^43. PBMCs from six HLA-typed donors (demographics and HLA-II alleles in Tables 5, 6) were expanded (14-days) and restimulated (24 h) with the APOB6 pool. To isolate viable responder and non-responder CD4^+ T cells from the same pool of stimulated PBMCs (schematic in FIG. 15A, gating strategy in FIG. 151B), the inventors used the AIM assay protocol (FIGS. 2A to 2D).
As a second control, unexpanded PBMCs (day 0 samples), sorted into naïve, central memory (TCM) and effector memory (TEM) CD4^+ T cells, were used (gating strategy in FIG. 15C). This allowed tracing the APOB6-specific AIM^+ T cell clones in naïve and memory T cell lineages. Genomic DNA, isolated from sorted AIM^− and AIM^+ Day 14 samples and naïve, TCM and TEM Day 0 samples from six donors, was used as the starting material for TCRVβ sequencing (schematic in FIG. 15A) using an optimized two-step, amplification bias-controlled multiplex-PCR-based approach^42,44 (immunoSEQ Human TCRB Assay, Adaptive Biotechnologies).
For isolation of APOB epitope-specific CD4^+ T cells, PBMCs were expanded with the APOB6pool (10 μg/ml per peptide). On Day 14, cultured cells were washed and re-stimulated with APOB6 (10 μg/ml) for 24 h (AIM assay protocol). 1 μg/ml of CD40 blocking antibody was added 15 min before stimulation. At the end of the stimulation period, cells were washed with FACS buffer (PBS w/o Ca/Mg, 2% FCS). Day 14 (APOB6 expanded and restimulated) and Day 0 (ex vivo samples with no in vitro stimulation) PBMC samples from six donors were resuspended in a staining master mix containing anti-human Fc-Block (Biolegend), fixable viability dye and antibodies against T cell and non-T cell (Dump) surface markers, activation markers and memory markers (antibody details in Table 4). Viability dye was used at 1:1000 dilution, antibodies were used at a final dilution of 1:100 (activation markers) and 1:200 (other extracellular markers). […] Gates were set based on unstimulated and PHA-L stimulated negative and positive controls, respectively. Antigen-specific AIM^+ and non-specific control AIM^− CD4^+ T cells from Day 14 samples and naïve (CD45RA^+CCR7^+), central memory (CD45RA^−CCR7^+, TCM) and effector memory (CD45RA^−CCR7^−, TEM) CD4^+ T cells from Day 0 PBMCs were sorted into HEPES-containing buffer (PBS with 2% FBS and 0.025 M HEPES) using BD FACSAria flow cytometry sorters. Acquired data was analyzed with FlowJo software.
Genomic DNA was extracted from sorted cells using QIAamp DNA Micro Kit (QIAGEN) and sent to Adaptive Biotechnologies for survey-level TCRβ sequencing (depth ˜60,000 reads) using their established immunoSEQ platform^7. Briefly, highly variable CDR3 regions on somatically rearranged human TCRβ chains were amplified with a two-step multiplex PCR approach using optimized set of primers that target the VDJ region spanning each unique CDR3B. A synthetic repertoire containing all possible V/J templates is used as a built-in control to quantify and correct PCR amplification biases. Processing of raw Illumina sequence reads, filtering, demultiplexing, clustering and mapping of CDR3 sequences and annotation of VDJ genes using IMGT database sequences were performed at Adaptive Biotechnologies and made available for download and analysis.

Substance: CASSPDFSGANVLTF: TCRβ CDR3 clone, TCRBV05-06+TCRBJ02-06, Donor 6
- Log10 Odds Ratio (Donor 6): 2.17
- No. of clone-specific productive templates, AIM+ CD4+ T (Total 34927) (Donor 6): 339
- No. of clone-specific productive templates, AIM− CD4+ T (Total 45364) (Donor 6): 3

Substance: CASSPGREPGNTIYF: TCRβ CDR3 clone, TCRBV07-09+TCRBJ01-03, Donor 5
- Log10 Odds Ratio (Donor 5): 0.57
- No. of clone-specific productive templates, AIM+ CD4+ T (Total 31354) (Donor 5): 422
- No. of clone-specific productive templates, AIM− CD4+ T (Total 48987) (Donor 5): 179

Substance: CASSPLLYSGNTIYF: TCRβ CDR3 clone, TCRBV07-02+TCRBJ01-03, Donor 3
- Log10 Odds Ratio (Donor 3): 12.09
- No. of clone-specific productive templates, AIM+ CD4+ T (Total 16700) (Donor 3): 347
- No. of clone-specific productive templates, AIM− CD4+ T (Total 21770) (Donor 3): 0

Substance: CASSPQPSTDTQYF: TCRβ CDR3 clone, TCRBV07-08+TCRBJ02-03, Donor 4
- Log10 Odds Ratio (Donor 4): 1.60
- No. of clone-specific productive templates, AIM+ CD4+ T (Total 25796) (Donor 4): 431
- No. of clone-specific productive templates, AIM− CD4+ T (Total 25928) (Donor 4): 11

Substance: CASSPRAGGAVREQYF: TCRβ CDR3 clone, TCRBV05-08+TCRBJ02-07, Donor 2
- Log10 Odds Ratio (Donor 2): 12.03
- No. of clone-specific productive templates, AIM+ CD4+ T (Total 18591) (Donor 2): 375
- No. of clone-specific productive templates, AIM− CD4+ T (Total 7206) (Donor 2): 0

Substance: CASSPRGAVNTEAFF: TCRβ CDR3 clone, TCRBV07-09+TCRBJ01-01, Donor 4
- Log10 Odds Ratio (Donor 4): 0.88
- No. of clone-specific productive templates, AIM+ CD4+ T (Total 25796) (Donor 4): 950
- No. of clone-specific productive templates, AIM− CD4+ T (Total 25928) (Donor 4): 130

Substance: CASSQEVGGDHGYTF: TCRβ CDR3 clone, TCRBV04-03+TCRBJ01-02, Donor 3
- Log10 Odds Ratio (Donor 3): 2.41
- No. of clone-specific productive templates, AIM+ CD4+ T (Total 16700) (Donor 3): 759
- No. of clone-specific productive templates, AIM− CD4+ T (Total 21770) (Donor 3): 4

Substance: CASSQTALYSGNTIYF: TCRβ CDR3 clone, TCRBV19-01+TCRBJ01-03, Donor 5
- Log10 Odds Ratio (Donor 5): 12.08
- No. of clone-specific productive templates, AIM+ CD4+ T (Total 31354) (Donor 5): 777
- No. of clone-specific productive templates, AIM− CD4+ T (Total 48987) (Donor 5): 0

Substance: CASSQTGQGYNEQFF: TCRβ CDR3 clone, TCRBV23-01+TCRBJ02-01, Donor 6
- Log10 Odds Ratio (Donor 6): 1.49
- No. of clone-specific productive templates, AIM+ CD4+ T (Total 34927) (Donor 6): 308
- No. of clone-specific productive templates, AIM− CD4+ T (Total 45364) (Donor 6): 13

Substance: CASSSLTPEAYGYTF: TCRβ CDR3 clone, TCRBV28-01+TCRBJ01-02, Donor 2
- Log10 Odds Ratio (Donor 2): 2.21
- No. of clone-specific productive templates, AIM+ CD4+ T (Total 18591) (Donor 2): 796
- No. of clone-specific productive templates, AIM− CD4+ T (Total 7206) (Donor 2): 2

Substance: CASSSSGSNYNEQFF: TCRβ CDR3 clone, TCRBV03-01/03-02+TCRBJ02-01, Donor 3
- Log10 Odds Ratio (Donor 3): 1.19
- No. of clone-specific productive templates, AIM+ CD4+ T (Total 16700) (Donor 3): 597
- No. of clone-specific productive templates, AIM− CD4+ T (Total 21770) (Donor 3): 52

Substance: CASSTTGLAAYNEQFF: TCRβ CDR3 clone, TCRBV19-01+TCRBJ02-01, Donor 1
- Log10 Odds Ratio (Donor 1): 1.97
- No. of clone-specific productive templates, AIM+ CD4+ T (Total 21697) (Donor 1): 519
- No. of clone-specific productive templates, AIM− CD4+ T (Total 49956) (Donor 1): 13

Substance: CASSWDRTKFGNQPQHF: TCRβ CDR3 clone, TCRBV19-01+TCRBJ01-05, Donor 2
- Log10 Odds Ratio (Donor 2): 2.02
- No. of clone-specific productive templates, AIM+ CD4+ T (Total 18591) (Donor 2): 268
- No. of clone-specific productive templates, AIM− CD4+ T (Total 7206) (Donor 2): 1

Substance: CASSYGGGPPDTQYF: TCRβ CDR3 clone, TCRBV06-06+TCRBJ02-03, Donor 5
- Log10 Odds Ratio (Donor 5): 2.34
- No. of clone-specific productive templates, AIM+ CD4+ T (Total 31354) (Donor 5): 810
- No. of clone-specific productive templates, AIM− CD4+ T (Total 48987) (Donor 5): 6

Substance: CASSYRQTNQPQHF: TCRβ CDR3 clone, TCRBV06-02/06-03+TCRBJ01-05, Donor 4
- Log10 Odds Ratio (Donor 4): 12.14
- No. of clone-specific productive templates, AIM+ CD4+ T (Total 25796) (Donor 4): 509
- No. of clone-specific productive templates, AIM− CD4+ T (Total 25928) (Donor 4): 0

Substance: CASSYSSGGGNEQFF: TCRβ CDR3 clone, TCRBV06-05+TCRBJ02-01, Donor 1
- Log10 Odds Ratio (Donor 1): 2.61
- No. of clone-specific productive templates, AIM+ CD4+ T (Total 21697) (Donor 1): 348
- No. of clone-specific productive templates, AIM− CD4+ T (Total 49956) (Donor 1): 2

Substance: CASTATESSPLHF: TCRβ CDR3 clone, TCRBV12-03/12-04+TCRBJ01-06, Donor 5
- Log10 Odds Ratio (Donor 5): 11.80
- No. of clone-specific productive templates, AIM+ CD4+ T (Total 31354) (Donor 5): 415
- No. of clone-specific productive templates, AIM− CD4+ T (Total 48987) (Donor 5): 0
